These results are taken from the NIST ThermoML archive (doi:10.1021/acs.jced.7b00964).

Each structure is given as a SMILES string. Numbers after ± are expanded uncertainties.

For the data set the following is noted: Liquid, Closed cell (Static) method.

`CC(C)C` [2-methylpropane]: the “vapor or sublimation pressure” value runs as follows: (243.15 K) 46.7 ± 1 kPa; (253.15 K) 72.6 ± 1 kPa; (263.15 K) 108.7 ± 1 kPa; (273.15 K) 157.4 ± 1 kPa; (283.15 K) 221 ± 1.1 kPa.

Take `F/C=C/C(F)(F)F` [trans-1,3,3,3-tetrafluoropropene]: the “vapor or sublimation pressure” value was found to be 61 ± 1 kPa (243.15 K); 97 ± 1 kPa (253.15 K); 147.7 ± 1 kPa (263.15 K); 216.4 ± 1.1 kPa (273.15 K); 308.3 ± 1.1 kPa (283.15 K).

Take `FC(F)(F)I` [trifluoroiodomethane]: the “vapor or sublimation pressure” value (243.15 K) is given as 71.7 ± 1 kPa; the “vapor or sublimation pressure” value (253.15 K) is 109 ± 1 kPa; the “vapor or sublimation pressure” value (263.15 K) turned out to be 160.4 ± 1 kPa; the “vapor or sublimation pressure” value (273.15 K) is 228.2 ± 1.1 kPa; the “vapor or sublimation pressure” value (283.15 K) is 316.3 ± 1.1 kPa.

As usually defined, the vapor or sublimation pressure is the pressure of vapour in equilibrium with the condensed phase.
